Measured values taken from ChEMBL document CHEMBL1201862, “PubChem BioAssay data set” (2004).
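Five compound concentrations were applied to cells in 96-well plates for 48 hours; endpoints were derived by simple linear interpolation of the resulting dose-response curve. GI50: concentration for 50% inhibition of growth.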 Calls of active or inactive are those of the source. No stated cut-off is given here; in the data, active = GI50 up to about 1.1 µM and inactive = higher.

Tests used:
Assay in all cases: DTP human tumour cell line panel, 48 h
[1] = system: NCI-H23
[2] = system: T47D
[3] = system: BT-549
[4] = system: RPMI-8226
[5] = system: LOX IMVI
[6] = system: NCI-H522
[7] = system: NCI/ADR-RES
[8] = system: K562
[9] = system: UACC-62
[10] = system: ACHN
[11] = system: HOP-62
[12] = system: SR
[13] = system: U-251
[14] = system: SW-620
[15] = system: 786-0
[16] = system: MDA-N
[17] = system: OVCAR-4

Measured: GI50

O=C1CCSSCCC(=O)NCCN1
inactive: [1] > 100 µM | [2] > 100 µM | [3] > 100 µM | [4] > 100 µM | [5] > 100 µM | [6] > 100 µM | [7] > 100 µM | [8] > 100 µM | [9] > 100 µM | [10] > 100 µM | [11] > 100 µM | [12] 91.2 µM | [13] > 100 µM | [14] > 100 µM | [15] > 100 µM | [16] > 100 µM | [17] > 100 µM

COc1cc(C[C@@]2(C)[C@@H]3CCC[C@H](CO)[C@@]3(C)CC[C@@H]2C)c(Cl)c(OC)c1
inactive: [1] 19.6 µM | [2] 9.53 µM | [3] 17.6 µM | [4] 20.2 µM | [5] 17.8 µM | [6] 14.7 µM | [7] 15.2 µM | [8] 16.3 µM | [9] 15.3 µM | [10] 16 µM | [11] 17.1 µM | [12] 16 µM | [13] 15.5 µM | [14] 29.2 µM | [15] 15.7 µM | [16] 15.5 µM | [17] 15.8 µM

CCOC(=O)c1nc2ccccc2nc1Oc1ccc(OC)cc1
inactive: [2] > 100 µM | [3] > 100 µM | [4] > 100 µM | [5] > 100 µM | [6] 29 µM | [7] > 100 µM | [8] > 100 µM | [9] > 100 µM | [10] > 100 µM | [11] > 100 µM | [12] > 100 µM | [13] > 100 µM | [14] > 100 µM | [15] > 100 µM | [16] > 100 µM | [17] > 100 µM

CC(C)NC(=O)OCc1c(COC(=O)NC(C)C)n(C)c2c1ccc1sccc12
inactive: [1] 7.4 µM | [2] 17.3 µM | [3] 2.96 µM | [4] 9.73 µM | [5] 7.94 µM | [6] 3.65 µM | [7] > 25.4 µM | [8] 23.4 µM | [9] 10.2 µM | [10] 7 µM | [11] 20.9 µM | [12] 4.19 µM | [13] 20.7 µM | [14] 16.2 µM | [15] 6.35 µM | [16] 17.4 µM | [17] 12.8 µM

CCN(CC)C(=S)SS(=O)(=O)c1cccc(N)c1
inactive: [1] > 100 µM | [2] > 100 µM | [3] > 100 µM | [4] > 100 µM | [5] > 100 µM | [6] > 100 µM | [7] > 100 µM | [8] > 100 µM | [9] > 100 µM | [10] > 100 µM | [11] > 100 µM | [12] > 100 µM | [13] > 100 µM | [14] > 100 µM | [15] > 100 µM | [16] > 100 µM | [17] > 100 µM

CCOC(=O)/C(=C\c1ccnc2ccccc12)P(=O)(OCC)OCC
inactive: [1] 1.9 µM | [2] 3.18 µM | [3] 2.16 µM | [4] 2.67 µM | [5] 1.57 µM | [6] 1.33 µM | [7] 1.72 µM | [8] 5.89 µM | [9] 2.65 µM | [10] 2.08 µM | [11] 1.93 µM | [12] 2.24 µM | [13] 2.9 µM | [14] 2.52 µM | [15] 1.94 µM | [16] 2.3 µM | [17] 2.26 µM

CSC(=S)OC1CC(n2cnc3c(NC(=O)c4ccccc4)ncnc32)OC1CO[Si](C)(C)C(C)(C)C (stereo not given)
inactive: [1] 13.2 µM | [2] 5 µM | [3] 16.5 µM | [4] 16.3 µM | [5] 8.55 µM | [6] 7.18 µM | [7] 9.02 µM | [8] 3.78 µM | [9] 14.1 µM | [10] 13.8 µM | [11] 28.6 µM | [12] 11 µM | [13] 7.41 µM | [14] 12.5 µM | [15] 13.6 µM | [16] 7.87 µM | [17] 7.57 µM

Cc1ccc(NC=O)c(-c2c(N)[nH]c(=S)[nH]c2=O)c1
inactive: [1] > 100 µM | [2] > 100 µM | [3] > 100 µM | [4] > 100 µM | [5] > 100 µM | [6] > 100 µM | [7] > 100 µM | [8] > 100 µM | [9] > 100 µM | [10] 60.7 µM | [11] > 100 µM | [12] > 100 µM | [14] > 100 µM | [15] > 100 µM | [16] > 100 µM

CCC1(C(=O)OC(C)(C)C)OC12C(C)CCCC2C (stereo not given)
inactive: [1] 83.6 µM | [2] 32.9 µM | [3] > 100 µM | [4] 21.5 µM | [5] 32.1 µM | [6] 24.5 µM | [7] > 100 µM | [8] 21.8 µM | [9] 50.4 µM | [10] 24.2 µM | [11] 48.9 µM | [12] 18.5 µM | [13] 42.9 µM | [14] 29.5 µM | [15] 40.6 µM | [16] 56.8 µM | [17] 28.1 µM

C/C(=C/CO[Si](C)(C)C(C)(C)C)C(=O)N(C)c1ccccc1I
inactive: [1] 22 µM | [2] 14.8 µM | [3] 20.8 µM | [4] 19.4 µM | [5] 17.3 µM | [6] 15.6 µM | [7] 17.4 µM | [8] 19.8 µM | [9] 14.8 µM | [10] 17.3 µM | [11] 18.4 µM | [12] 11.6 µM | [13] 15.3 µM | [14] 17.6 µM | [15] 17.1 µM | [16] 17.7 µM | [17] 15.3 µM

NC(=O)N/N=C1/CCC(O)CC1CC(=O)O (stereo not given)
inactive: [1] > 100 µM | [2] > 100 µM | [3] > 100 µM | [4] > 100 µM | [5] > 100 µM | [6] > 100 µM | [7] > 100 µM | [8] > 100 µM | [9] > 100 µM | [10] > 100 µM | [11] > 100 µM | [12] 30.3 µM | [13] > 100 µM | [14] > 100 µM | [15] > 100 µM | [16] > 100 µM | [17] > 100 µM

C#C/C=C\CCCC/C=C\C#CC#CCCCC#CC#C[C@H](COS(=O)(=O)O)OS(=O)(=O)O
inactive: [1] > 100 µM | [2] > 100 µM | [3] > 100 µM | [4] > 100 µM | [5] > 100 µM | [6] > 100 µM | [7] > 100 µM | [9] > 100 µM | [10] > 100 µM | [11] > 100 µM | [12] > 100 µM | [13] > 100 µM | [14] > 100 µM | [15] > 100 µM | [16] > 100 µM | [17] > 100 µM
